Data taken from patent US5849760A, “2-(arylalkenyl)azacycloalkane derivatives as ligands for sigma receptors” (Institut de Recherche Jouveinal, priority 1993, dated 1998).
Counter-ions that a name gives are not always drawn.

Experiments:
[1] = tested on: cysteamine-induced gastroduodenal ulcers; test: Cysteamine-induced gastroduodenal ulcer; type: in vivo, male Sprague-Dawley rats; settings: I.P. route, 30 min before ulcerogenic agent, dose inhibiting 50% of ulcers; for ED50: Rattus norvegicus, ip, 18 h
Experimental: The activity of the compounds of the invention with respect to the gastrointestinal tract was shown in the rat by their ability to inhibit gastroduodenal ulcers induced by the administration of cysteamine. In terms of practical methodology, the study is performed according to the method described by Robert, A., et al., in Digestion, 1974, Vol. 11, pp. 199-214, in groups of male Sprague-Dawley rats with an average weight of 200 g, to which a cysteamine hydrochloride solution is administered by subcutaneous injection in a dose of 400 mg/kg. The test compounds are administered to the animals 1 h or 30 min, respectively, before the ulcerogenic agent, depending on whether the oral or intraperitoneal route is used. Eighteen hours later, the rats are sacrificed by elongation; the stomach and duodenum are removed, rinsed with physiological salt solution, and pinned to a card. The antropyloroduodenal region is examined for ulcers, and the area of the ulcers, expressed in mm^2, is determined by multiplying the two main perpendicular axes of the lesion. Statistical analysis of the results is performed by means of Student's t-test for the ulcerated areas in comparison with a control group. The results obtained after intraperitoneal administration are presented in Table 3 and are expressed as the ED50, which is the effective dose (mg/kg) of compound inhibiting 50% of the cysteamine-induced ulcers. Igmesine is presented by way of comparison.

sigma receptors = molecular target: T1, sigma receptors (Rattus norvegicus, UniProt Q9R0C9); test: In vitro binding to sigma receptors with (+)[^3 H]SKF10.047; settings: for IC50: rat brain membrane, (+)[^3 H]SKF10.047; for IC50, haloperidol / IC50, example: ratio to haloperidol, second series, rat brain membranes, [^3 H]SKF10.047
T1 construct: a preparation of rat brain membrane; from tissue; host or cells: rat brain membranes
Experimental: Experiments on binding to sigma and PCP receptors are performed with the ligands (+)[^3 H]SKF10.047 and [^3 H]TCP, respectively, by the technique described by Largent, B. L., et al. in J. Pharmacol. Exp. Ther., 1986, Vol. 238, pp. 739-748. The principle of this technique is to place in competition the affinity of the test substance and that of a radioactive ligand specific for the receptor being studied.
The results are expressed as the IC50 of the test substance, which is the concentration at which the tritiated ligand is displaced from 50% of its binding sites in the membrane preparation used.

PCP receptors = test: In vitro binding to PCP receptors with [^3 H]TCP; settings: rat brain membrane
Experimental: The test of binding to phenylcyclidine receptors (PCP receptors), performed in the presence of a ligand specific for PCP receptors, [^3 H]TCP, was used to investigate any undesirable interaction of the compounds of the invention with these receptors.
The principle of this technique is to place in competition the affinity of the test substance and that of a radioactive ligand specific for the receptor being studied.
The technique consists in incubating a preparation of rat brain membrane loaded with the labeled ligand specific for the receptor under study in solutions of varying concentration of the test substance. After filtration, one measures the radioactivity of the solution, which represents the displacement of this labeled ligand by the test substance.

T1 sequence (Q9R0C9 whole entry): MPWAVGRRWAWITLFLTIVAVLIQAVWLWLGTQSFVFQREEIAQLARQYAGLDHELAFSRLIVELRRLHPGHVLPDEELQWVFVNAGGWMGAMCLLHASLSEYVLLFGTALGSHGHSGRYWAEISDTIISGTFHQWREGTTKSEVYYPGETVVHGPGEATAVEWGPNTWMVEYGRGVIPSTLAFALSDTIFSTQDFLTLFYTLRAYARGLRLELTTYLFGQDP

| SMILES | ED50 [1] [mg/kg] | IC50, haloperidol / IC50, example (sigma receptors) | also measured |
| --- | --- | --- | --- |
| C(=C\c1ccccc1)/CC1CCCN1CC1CC1 (racemic) [Example 1.1, (±)-(E)-2-cinnamyl-1-cyclopropylmethylpyrrolidine] | 0.185 |  | IC50 (sigma receptors): 34.2 nM; IC50 (PCP receptors): > 10000 nM |
| C(=C\c1ccccc1)/CC1CCCN1CC1CC1 (single isomer, unassigned; (+)) [Example 1.2, (+)-(E)-2-cinnamyl-1-cyclopropylmethylpyrrolidine] | < 0.1 |  |  |
| C(=C\c1ccccc1)/CC1CCCCN1CC1CC1 (single isomer, unassigned; (+)) [Example 2A.2, (+)-(E)-2-cinnamyl-1-(cyclopropylmethyl)piperidine] | < 0.1 |  |  |
| CCC(C/C=C/c1ccccc1)(c1ccccc1)N(C)CC1CC1 (single isomer, unassigned; (+)) [Igmesine, (+)-N-(cyclopropylmethyl)-1-ethyl-N-methyl-1,4-diphenyl-3-butene-1-ylaminehydrochloride, reference compound] | 5.95 |  |  |
| C(=C\c1ccccc1)/CC1CCCN1CC1CC1 (single isomer, unassigned; (-)) [Example 1.3, (-)-(E)-2-cinnamyl-1-cyclopropylmethylpyrrolidine] |  | 1.6 | ED50, cysteamine-induced ulcer ([1]; 1080 min): < 0.100 mg/kg |
| C(=C\c1ccccc1)/CC1CCCCN1CC1CC1 (single isomer, unassigned; (-)) [Example 2A.3, (-)-(E)-2-cinnamyl-1-(cyclopropylmethyl)piperidine] |  | 1.4 |  |
| C(=C\c1ccccc1)/CC1CCCN1CC1CCC1 (stereo not drawn) [Example 1.4, (E)-2-cinnamyl-1-cyclobutylmethylpyrrolidine] | 0.137 |  | affinity for sigma receptors (sigma receptors; in words): strong affinity for sigma receptors; IC50 (sigma receptors): 4.52 nM; IC50 (PCP receptors): > 10000 nM |
| C(=C\c1ccccc1)/CC1CCCN1CCc1ccccc1 (stereo not drawn) [Example 1.6, (E)-2-cinnamyl-1-phenethylpyrrolidine] |  | 1.3 |  |
| C(=C\c1ccccc1)/CC1CCCCN1CC1CC1 (stereo not drawn) [Example 2A.1, (E)-2-cinnamyl-1-cyclopropylmethylpiperidine] | 0.1 |  |  |
| C(=C\c1ccccc1)/CC1CCCCN1CC1CCC1 (stereo not drawn) [Example 2A.4, (E) -2-cinnamyl-1-cyclobutylmethylpiperidine] |  | 2.3 |  |
| C(=C\c1ccccc1)/CC1CCCCN1CCc1ccccc1 (stereo not drawn) [Example 2A.5, (E)-2-cinnamyl-1-(phenethyl)piperidine] |  | 1.0 |  |
| C(=C/c1ccccc1)/CC1CCCCN1CC1CC1 (stereo not drawn) [Example 2A.6, (Z)-2-cinnamyl-1-cyclopropylmethylpiperidine] | < 0.1 |  | IC50 (sigma receptors): 34.3 nM; IC50 (PCP receptors): > 10000 nM |
| Fc1ccc(/C=C\CC2CCCCN2CC2CC2)cc1 (stereo not drawn) [Example 2B.2, (Z)-2-(p-fluorocinnamyl)-1-cyclopropylmethylpiperidine] |  | 1.6 |  |
| FC(F)(F)c1ccc(/C=C/CC2CCCCN2CC2CC2)cc1 (stereo not drawn) [Example 2G, (E)-2-(p-trifluoromethylcinnamyl)-1-cyclopropylmethylpiperidine] |  | 0.8 |  |
| C(=C/c1ccccc1)/CC1CCCN1CC1CC1 (stereo not drawn) [Example 2K, (Z)-2-cinnamyl-1-cyclopropylmethylpyrrolidine] |  | 4.3 |  |
| Fc1ccc(/C=C/CC2CCCN2CC2CC2)cc1 (stereo not drawn) [Example 2L, (E)-2-(p-fluorocinnamyl)-1-cyclopropylmethylpyrrolidine] |  | 1.1 |  |
